Measured values as given in ChEMBL document CHEMBL1201862, “PubChem BioAssay data set” (2004).
The source made the active and inactive calls.

Tests used:
[1] = target: Cytochrome P450 2D6 (Homo sapiens, UniProt P10635);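 further: CYP2D6 member of a cytochrome P450 panel assay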
[2] = target: T1, Protein skinhead-1 (Caenorhabditis elegans, UniProt P34707); assay type: functional
T1 sequence (P34707 whole entry): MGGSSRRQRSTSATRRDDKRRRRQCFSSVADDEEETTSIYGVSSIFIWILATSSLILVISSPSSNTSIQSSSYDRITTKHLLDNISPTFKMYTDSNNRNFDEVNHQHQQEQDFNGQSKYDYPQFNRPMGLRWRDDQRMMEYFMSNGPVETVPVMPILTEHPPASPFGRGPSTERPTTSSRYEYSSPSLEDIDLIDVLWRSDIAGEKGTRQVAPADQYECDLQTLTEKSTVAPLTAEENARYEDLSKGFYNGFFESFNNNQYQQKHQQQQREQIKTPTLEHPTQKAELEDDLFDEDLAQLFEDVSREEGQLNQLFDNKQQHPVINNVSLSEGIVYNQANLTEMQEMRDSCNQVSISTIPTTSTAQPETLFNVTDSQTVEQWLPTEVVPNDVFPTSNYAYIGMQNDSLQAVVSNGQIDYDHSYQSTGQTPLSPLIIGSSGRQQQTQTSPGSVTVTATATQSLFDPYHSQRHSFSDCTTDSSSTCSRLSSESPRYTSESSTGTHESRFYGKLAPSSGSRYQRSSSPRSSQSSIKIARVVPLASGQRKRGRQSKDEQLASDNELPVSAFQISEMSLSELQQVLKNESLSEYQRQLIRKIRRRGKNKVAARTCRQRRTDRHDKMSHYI

[3] = target: T2, Cytochrome P450 1A2 (Homo sapiens, UniProt P05177);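 further: PubChem cytochrome P450 panel assay, CYP1A2 panel member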
T2 sequence (P05177 whole entry): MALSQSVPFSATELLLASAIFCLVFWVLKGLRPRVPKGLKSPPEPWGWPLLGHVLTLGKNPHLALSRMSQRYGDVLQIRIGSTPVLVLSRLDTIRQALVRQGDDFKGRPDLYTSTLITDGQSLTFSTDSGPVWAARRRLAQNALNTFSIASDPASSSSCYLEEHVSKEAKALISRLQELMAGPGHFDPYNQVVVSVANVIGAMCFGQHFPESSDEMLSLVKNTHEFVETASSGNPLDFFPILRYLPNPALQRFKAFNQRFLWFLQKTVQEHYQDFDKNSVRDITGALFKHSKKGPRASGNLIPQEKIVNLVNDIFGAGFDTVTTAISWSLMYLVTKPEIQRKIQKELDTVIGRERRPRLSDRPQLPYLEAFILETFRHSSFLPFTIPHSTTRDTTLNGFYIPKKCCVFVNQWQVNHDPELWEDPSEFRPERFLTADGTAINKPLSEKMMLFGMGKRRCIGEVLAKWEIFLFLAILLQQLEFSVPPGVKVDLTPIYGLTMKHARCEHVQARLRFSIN

[4] = tested on: INS1; assay: INS-1E survival protection against cytokine death – cell-based, luminescence, retest, dose response (AID 449756); assay type: functional; conditions: Rattus norvegicus;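 further: cell death triggered by IL-1 beta plus TNF-alpha plus IFN-gamma mixture; protective hits raise ATP signal compared with cytokine alone wells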
[5] = tested on: Streptococcus; assay: GAS UMAA2166 growth inhibition – luminescence, BacTiterGlo, counter-screen for streptokinase expression inhibitor project, dose response (AID 1915); assay type: functional, organism-based;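 further: potency for reduction of bacterial viability or growth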
[6] = Luminescence Cell-Based Dose Retest to Confirm Inhibitors of Cancer Stem Cells. [Related pubchem assays (depositor defined):AID2717, AID2721]; assay type: functional; conditions: Homo sapiens
[7] = target: T3, Streptokinase A (Streptococcus pyogenes serotype M1, UniProt P10520); assay: viability-normalized secreted streptokinase activity reduction – plasminogen activation absorbance, OD405, dose response (AID 1914); assay type: functional, Streptococcus pyogenes M1 GAS;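 further: secreted streptokinase activity via plasminogen activation per viability signal from cell pellet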
T3 sequence (P10520 whole entry): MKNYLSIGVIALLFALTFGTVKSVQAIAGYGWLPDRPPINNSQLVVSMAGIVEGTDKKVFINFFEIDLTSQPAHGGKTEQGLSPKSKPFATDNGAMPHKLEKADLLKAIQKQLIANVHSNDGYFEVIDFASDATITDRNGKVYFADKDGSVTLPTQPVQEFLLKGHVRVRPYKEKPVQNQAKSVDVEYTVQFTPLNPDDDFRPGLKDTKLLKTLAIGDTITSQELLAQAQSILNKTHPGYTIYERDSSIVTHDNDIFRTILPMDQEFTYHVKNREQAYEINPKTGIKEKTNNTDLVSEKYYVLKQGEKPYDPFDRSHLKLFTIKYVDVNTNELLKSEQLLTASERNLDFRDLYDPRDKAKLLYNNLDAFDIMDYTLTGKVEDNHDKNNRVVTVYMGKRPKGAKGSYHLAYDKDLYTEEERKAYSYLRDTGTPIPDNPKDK

[8] = tested on: Streptococcus sp. 'group A'; assay: Streptococcus pyogenes SK(-)GAS viability under kanamycin – luminescence, BacTiterGlo, confirmation, counter-screen for streptokinase expression inhibitor project, dose response (AID 1900); assay type: functional, organism-based
[9] = target: Heat shock protein HSP 90-alpha (Homo sapiens, UniProt P07900); assay type: functional, organism-based
[10] = NIH3T3 cell viability loss – ATP luminescence, mouse fibroblasts, counter-screen, dose response (AID 2010); assay type: functional, cell-based;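 further: cells exposed to compound for about 90 hours before reading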
[11] = Trypanosoma cruzi growth suppression in host cells – NIH3T3 host cells, beta-gal luminescence, confirmation (AID 2044); assay type: functional, cell-based;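 further: intracellular parasites grown in NIH/3T3 mouse fibroblasts as host cells; luminescent beta-galactosidase reporter signal from transgenic T. cruzi replicating inside host cells; inhibitors lower the luminescence signal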
[12] = target: Cytochrome P450 2C19 (Homo sapiens, UniProt P33261); assay: Cytochrome panel assay with activity outcomes. Panel member name: p450-cyp2c19 Compounds with AC50 equal or less than 10 uM are considered active; assay type: functional
[13] = target: T4, Corticotropin-releasing factor receptor 2/Corticotropin-releasing factor-binding protein (Homo sapiens, UniProt P24387+Q13324); assay: activators of CRF receptor 2 with binding protein – uHTS hits, confirmation (AID 602473); assay type: functional; conditions: read-out: EC50_Mean
T4 sequence (Q13324 whole entry): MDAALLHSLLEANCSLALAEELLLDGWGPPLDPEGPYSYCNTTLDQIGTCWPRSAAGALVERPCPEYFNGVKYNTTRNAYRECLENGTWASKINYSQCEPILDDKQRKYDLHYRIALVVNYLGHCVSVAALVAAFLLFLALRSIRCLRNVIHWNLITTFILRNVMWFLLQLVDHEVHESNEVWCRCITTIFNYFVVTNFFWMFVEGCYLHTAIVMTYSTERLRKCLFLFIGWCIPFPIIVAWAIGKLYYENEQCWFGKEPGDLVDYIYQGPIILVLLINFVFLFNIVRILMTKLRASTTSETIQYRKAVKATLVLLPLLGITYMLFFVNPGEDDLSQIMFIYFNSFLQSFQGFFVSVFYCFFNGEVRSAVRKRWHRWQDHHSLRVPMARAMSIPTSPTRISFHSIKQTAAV
T4 sequence (P24387 whole entry): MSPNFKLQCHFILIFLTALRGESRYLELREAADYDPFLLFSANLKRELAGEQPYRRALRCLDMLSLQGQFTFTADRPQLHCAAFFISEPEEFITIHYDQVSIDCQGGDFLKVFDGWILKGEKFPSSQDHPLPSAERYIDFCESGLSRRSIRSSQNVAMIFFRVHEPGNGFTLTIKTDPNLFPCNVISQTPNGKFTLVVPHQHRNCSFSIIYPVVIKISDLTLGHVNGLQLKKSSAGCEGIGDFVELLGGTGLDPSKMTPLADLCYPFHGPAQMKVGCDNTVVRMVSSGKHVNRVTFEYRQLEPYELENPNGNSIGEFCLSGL

[14] = target: Cytochrome P450 2C9 (Homo sapiens, UniProt P11712)
[15] = target: Cytochrome P450 3A4 (Homo sapiens, UniProt P08684);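 further: CYP3A4 tested as one member of a cytochrome P450 panel screen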
Cytochrome P450 3A4, sequence (P08684 whole entry): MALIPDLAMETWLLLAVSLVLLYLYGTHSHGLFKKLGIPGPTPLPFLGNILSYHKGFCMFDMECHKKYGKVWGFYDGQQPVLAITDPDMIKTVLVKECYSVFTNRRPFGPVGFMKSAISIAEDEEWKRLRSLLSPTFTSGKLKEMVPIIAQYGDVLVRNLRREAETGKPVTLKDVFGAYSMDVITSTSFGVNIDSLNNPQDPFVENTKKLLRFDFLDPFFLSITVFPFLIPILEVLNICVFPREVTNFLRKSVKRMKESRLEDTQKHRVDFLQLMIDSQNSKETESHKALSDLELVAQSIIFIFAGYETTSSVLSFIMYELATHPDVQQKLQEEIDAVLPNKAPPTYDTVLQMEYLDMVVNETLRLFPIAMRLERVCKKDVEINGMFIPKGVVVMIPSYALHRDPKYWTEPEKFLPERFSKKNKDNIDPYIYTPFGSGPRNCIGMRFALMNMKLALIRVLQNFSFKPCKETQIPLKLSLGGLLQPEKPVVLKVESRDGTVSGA

Cytochrome P450 2D6, sequence (P10635 whole entry): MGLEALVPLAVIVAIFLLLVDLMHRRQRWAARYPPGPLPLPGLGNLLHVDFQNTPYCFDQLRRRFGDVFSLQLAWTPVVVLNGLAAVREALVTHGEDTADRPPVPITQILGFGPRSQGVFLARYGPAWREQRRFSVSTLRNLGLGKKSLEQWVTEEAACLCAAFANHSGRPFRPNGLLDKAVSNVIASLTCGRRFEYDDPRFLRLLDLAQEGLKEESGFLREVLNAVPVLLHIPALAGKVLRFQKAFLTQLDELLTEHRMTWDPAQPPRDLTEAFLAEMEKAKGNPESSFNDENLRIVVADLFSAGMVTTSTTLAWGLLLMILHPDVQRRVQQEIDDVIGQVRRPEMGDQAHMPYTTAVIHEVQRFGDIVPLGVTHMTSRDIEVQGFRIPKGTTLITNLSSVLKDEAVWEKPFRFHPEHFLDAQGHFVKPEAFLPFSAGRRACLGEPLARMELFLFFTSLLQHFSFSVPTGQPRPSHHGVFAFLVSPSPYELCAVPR
Cytochrome P450 2C19, sequence (P33261 whole entry): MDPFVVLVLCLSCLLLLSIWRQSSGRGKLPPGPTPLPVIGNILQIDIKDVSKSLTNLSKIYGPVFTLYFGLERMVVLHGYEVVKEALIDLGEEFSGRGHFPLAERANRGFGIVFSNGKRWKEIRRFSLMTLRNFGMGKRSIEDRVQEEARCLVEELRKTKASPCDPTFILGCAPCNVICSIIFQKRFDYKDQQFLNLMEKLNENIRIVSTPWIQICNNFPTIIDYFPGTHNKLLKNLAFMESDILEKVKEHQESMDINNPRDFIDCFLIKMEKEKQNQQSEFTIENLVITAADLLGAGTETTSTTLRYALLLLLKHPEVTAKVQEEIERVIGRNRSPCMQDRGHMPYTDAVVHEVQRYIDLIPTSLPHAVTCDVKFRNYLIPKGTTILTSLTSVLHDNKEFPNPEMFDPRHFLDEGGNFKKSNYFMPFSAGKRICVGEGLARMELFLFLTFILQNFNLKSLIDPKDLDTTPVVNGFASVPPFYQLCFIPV
Cytochrome P450 2C9, sequence (P11712 whole entry): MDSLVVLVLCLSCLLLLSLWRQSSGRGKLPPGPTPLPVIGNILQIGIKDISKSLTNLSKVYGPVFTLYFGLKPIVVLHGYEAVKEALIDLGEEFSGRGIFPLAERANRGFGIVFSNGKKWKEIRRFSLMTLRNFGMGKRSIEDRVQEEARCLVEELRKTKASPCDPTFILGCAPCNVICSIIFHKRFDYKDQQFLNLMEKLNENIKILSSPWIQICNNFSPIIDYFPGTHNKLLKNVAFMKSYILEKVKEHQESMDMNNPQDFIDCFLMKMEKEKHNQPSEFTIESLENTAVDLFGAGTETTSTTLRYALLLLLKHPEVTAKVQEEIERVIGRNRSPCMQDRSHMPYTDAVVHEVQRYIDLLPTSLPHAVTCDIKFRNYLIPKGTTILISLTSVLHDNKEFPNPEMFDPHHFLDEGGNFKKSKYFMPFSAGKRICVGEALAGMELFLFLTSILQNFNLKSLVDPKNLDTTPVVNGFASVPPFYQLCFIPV

CCOc1ccc2nc(O)c(CN(CCc3ccccc3)C(=O)N3CCCC3)cc2c1
AC50 [1]: 22.4 µM (inconclusive)

c1csc(-c2nc(-c3ccncc3)no2)c1
IC50 [2]: 22.2 µM (active)

COc1ccc(CC(=O)Nc2cccc(-c3nnc(-c4ccco4)o3)c2)cc1
AC50 [3]: 15.8 µM (inconclusive) | AC50 [1]: 20 µM (inconclusive)

O=C(Nc1ccc(Br)c(C(F)(F)F)c1)c1ccc(C(F)(F)F)cc1
AC50 [4]: 8.01 µM (active) | EC50 [5]: 3.98 µM (active) | AC50 [6]: 2.06 µM (active) | EC50 [7]: > 150 µM (not active) | EC50 [8]: 1.74 µM (active)

CCOC(=O)c1cccc(C2=CC(=O)C[C@H](c3ccc(Cl)cc3)C2)c1
AC50 [6]: 0.885 µM (active)

CC(C)C1COC(c2cccc3ccccc23)=N1 (stereo not drawn)
IC50 [2]: 25 µM (active)

c1ccc2oc(SCc3nc4ccccc4s3)nc2c1
IC50 [2]: 37.5 µM (active)

CCCC1(C(=O)OCC)NC(c2ccc(N(C)C)cc2)C2C(=O)N(c3ccccc3)C(=O)C21 (stereo not drawn)
IC50 [2]: > 100 µM (inactive)

CSc1nc2ccc(S(=O)(=O)NC3CCCCC3)cc2s1
AC50 [9]: 8.57 µM (active)

CC1CCN(S(=O)(=O)c2ccc(C(=O)N3CCOCC3)cc2)CC1
IC50 [2]: > 100 µM (inactive)

CCN(C(=O)COC(=O)c1cc(-c2cccc3ccccc23)nc2ccccc12)C1CCS(=O)(=O)C1 (stereo not drawn)
IC50 [2]: > 100 µM (inactive)

O=C(CN=C(S)N(Cc1ccccc1)Cc1ccccc1F)NCCc1ccc(Cl)cc1
EC50 [10]: > 60 µM (not active) | EC50 [11]: 1.92 µM (active) | AC50 [6]: 5.59 µM (active)

Brc1ccc(-c2nnc(-c3ccccc3Br)o2)cc1
IC50 [2]: > 100 µM (inactive)

Cc1ccc(N2CCN(S(=O)(=O)c3ccc4oc(=O)ccc4c3)CC2)c(C)c1
IC50 [2]: > 100 µM (inactive)

O=C(Nc1ccc(Cl)c(Cl)c1)Nc1ccon1
EC50 [5]: 38.7 µM (active) | IC50 [2]: > 100 µM (inactive) | EC50 [7]: > 150 µM (not active) | EC50 [8]: 44.4 µM (active)

CCNc1ncc2nc(-c3ccccc3)c(=O)n(C3CC3)c2n1
AC50 [1]: 1.26 µM (inconclusive)

NC(=S)Nc1ccc(Oc2ccc(NC(N)=S)cc2)cc1
AC50 [1]: 14.1 µM (inconclusive) | AC50 ([12]; read-out: AC50): 25.1 µM (inconclusive)

COc1ccc(C(C)C)cc1S(=O)(=O)n1cnc(C)c1
IC50 [2]: > 100 µM (inactive)

O=C(Nc1nc(-c2ccc(Cl)s2)cs1)c1ccccc1
IC50 [2]: 68.3 µM (inactive)

c1ccc(CCn2nnnc2CN2CCCc3ccccc32)cc1
EC50 [13]: > 53 µM (inactive)

C[C@@]12CC[C@H]3[C@H](CC=C4C[C@@H](O)CC[C@@]43C)[C@@H]1CC[C@@H]2N(CCO)CCO
AC50 [1]: 3.98 µM (inconclusive) | AC50 [12]: inconclusive

CNc1nc(-c2ccoc2)nc2ccccc12
AC50 [1]: 39.8 µM (inconclusive)

C#CCCCC(=S)Nc1ccccc1
AC50 [14]: 39.8 µM (inconclusive) | AC50 [1]: 39.8 µM (inconclusive) | AC50 [15]: 25.1 µM (inconclusive) | AC50 ([12]; read-out: AC50): 39.8 µM (inconclusive)

O=C(CSCC(=O)OCn1nnc2ccccc2c1=O)Nc1ccc(Cl)cc1
AC50 [3]: 25.1 µM (inconclusive) | AC50 [1]: 25.1 µM (inconclusive)

CSc1cccc(NC(=O)C2C3C=CC4(O3)C2C(=O)N(CCN2CCOCC2)C4C(=O)NC2CCCCC2)c1 (stereo not drawn)
IC50 [2]: > 100 µM (inactive)

COc1ccc(-c2nn(-c3ccccc3)cc2C(=O)N(C)CC(=O)Nc2cccc(F)c2)cc1
AC50 [6]: 12.9 µM (active)

CCC(C)c1ccc(NC(=O)C2CC3CCC2C3)cc1 (stereo not drawn)
AC50 [6]: 4.53 µM (active)

CC(C(=O)O)N1C(=O)CSc2ncccc21 (stereo not drawn)
AC50 [6]: > 195 µM (inactive)

CC(C)(C)[C@@H]1CCC(=O)N(CC[C@H](Sc2ccc(Br)cc2)c2ccccc2)CC1
AC50 [6]: 3.18 µM (active)

O=[N+]([O-])c1ccc(O)c(C2CCCCC2)c1
AC50 [9]: 8.09 µM (active)

CN(C(=O)C1Cc2c(-c3ccccc3Oc3ccccc3)ccnc2O1)c1ccccc1 (stereo not drawn)
IC50 [2]: > 100 µM (inactive)

O=C(NC(c1ccc(-c2ccccc2)cc1)c1cnccn1)C1CCN(CCOc2ccc(Cl)cc2Cl)CC1 (stereo not drawn)
IC50 [2]: > 100 µM (inactive)

C/C(=N\NC(N)=S)c1cc(-c2ccccc2)c(-c2ccccc2)s1
AC50 [6]: 3.27 µM (active)

CCOC(=O)c1ccccc1N/C=C1\CCCCC1=O
AC50 [14]: 39.8 µM (inconclusive) | AC50 [1]: 35.5 µM (inconclusive)

O=C1NC(c2cccc([N+](=O)[O-])c2)=CCN1c1ccccc1O [ICILLIN]
AC50 [3]: 31.6 µM (inconclusive) | AC50 [1]: 20 µM (inconclusive)
